{"source": "ChEMBL document CHEMBL4257462", "about": "“Benzisoxazole: a privileged scaffold for medicinal chemistry” (Medchemcomm, 2017)", "key": {"[1]": {"test_system": "Mycobacterium tuberculosis", "experiment": "Antimycobacterial activity against Mycobacterium tuberculosis H37Rv", "format": "functional"}, "[2]": {"molecular_target": "5-hydroxytryptamine receptor 2A (Rattus norvegicus, UniProt P14842)", "sequence (P14842 whole entry)": "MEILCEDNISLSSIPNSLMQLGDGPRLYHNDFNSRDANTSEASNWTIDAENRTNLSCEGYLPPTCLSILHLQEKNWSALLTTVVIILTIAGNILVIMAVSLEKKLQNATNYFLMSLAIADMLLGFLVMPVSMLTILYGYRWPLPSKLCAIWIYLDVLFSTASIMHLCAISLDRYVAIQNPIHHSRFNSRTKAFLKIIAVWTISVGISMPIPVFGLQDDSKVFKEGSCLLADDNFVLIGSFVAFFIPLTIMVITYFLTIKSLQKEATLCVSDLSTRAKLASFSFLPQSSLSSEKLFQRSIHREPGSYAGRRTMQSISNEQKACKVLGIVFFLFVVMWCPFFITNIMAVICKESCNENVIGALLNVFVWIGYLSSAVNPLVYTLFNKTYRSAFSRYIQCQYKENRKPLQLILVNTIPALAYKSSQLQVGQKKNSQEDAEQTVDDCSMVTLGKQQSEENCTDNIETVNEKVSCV", "experiment": "Displacement of [3H]ketanserin from 5-HT2A receptor in rat frontal cortex membranes", "format": "cell membranes, Membrane"}, "[3]": {"molecular_target": "D(2) dopamine receptor (Rattus norvegicus, UniProt P61169)", "sequence (P61169 whole entry)": "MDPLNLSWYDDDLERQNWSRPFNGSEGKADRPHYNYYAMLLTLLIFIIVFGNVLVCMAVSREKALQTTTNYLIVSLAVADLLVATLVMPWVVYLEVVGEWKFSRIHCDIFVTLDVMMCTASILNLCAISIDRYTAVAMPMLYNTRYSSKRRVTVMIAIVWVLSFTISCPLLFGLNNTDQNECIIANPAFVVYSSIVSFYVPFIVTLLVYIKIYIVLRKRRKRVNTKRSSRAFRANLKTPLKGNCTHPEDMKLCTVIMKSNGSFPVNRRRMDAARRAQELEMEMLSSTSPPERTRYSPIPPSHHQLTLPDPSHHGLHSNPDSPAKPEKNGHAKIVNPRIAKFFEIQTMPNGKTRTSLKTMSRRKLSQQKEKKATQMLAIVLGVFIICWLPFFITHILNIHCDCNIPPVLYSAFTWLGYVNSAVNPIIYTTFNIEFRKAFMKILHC", "experiment": "Displacement of [3H]methylspiperone from D2 receptor in rat striatal membranes", "format": "cell membranes, Striatum, Membrane"}, "[4]": {"test_system": "Geotrichum candidum", "experiment": "Antimicrobial activity against Geotrichum candidum", "format": "functional"}, "[5]": {"test_system": "HepG2", "experiment": "Growth inhibition of human HepG2 cells after 24 hrs by MTT assay relative to control", "format": "functional"}, "[6]": {"molecular_target": "Acetylcholinesterase (Electrophorus electricus, UniProt O42275)", "sequence (O42275 whole entry)": "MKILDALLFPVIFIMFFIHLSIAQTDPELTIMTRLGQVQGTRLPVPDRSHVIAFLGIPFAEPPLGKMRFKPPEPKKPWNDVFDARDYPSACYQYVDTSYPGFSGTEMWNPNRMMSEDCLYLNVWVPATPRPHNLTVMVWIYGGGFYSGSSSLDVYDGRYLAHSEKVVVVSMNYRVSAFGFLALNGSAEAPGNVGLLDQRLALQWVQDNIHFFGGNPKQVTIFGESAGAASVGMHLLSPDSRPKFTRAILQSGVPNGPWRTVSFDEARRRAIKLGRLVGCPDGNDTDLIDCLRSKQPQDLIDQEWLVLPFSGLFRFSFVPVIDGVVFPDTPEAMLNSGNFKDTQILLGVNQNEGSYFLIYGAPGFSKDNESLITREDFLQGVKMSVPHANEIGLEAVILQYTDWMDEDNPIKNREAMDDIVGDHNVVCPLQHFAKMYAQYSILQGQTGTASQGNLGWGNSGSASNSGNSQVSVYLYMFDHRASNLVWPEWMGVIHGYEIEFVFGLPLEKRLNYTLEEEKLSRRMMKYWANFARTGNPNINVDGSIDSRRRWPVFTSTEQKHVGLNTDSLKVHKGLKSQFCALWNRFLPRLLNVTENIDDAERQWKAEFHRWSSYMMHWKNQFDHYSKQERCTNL", "experiment": "Inhibition of electric eel AChE"}, "[7]": {"molecular_target": "T1, Acetylcholinesterase (Rattus norvegicus, UniProt P37136)", "T1 sequence (P37136 whole entry)": "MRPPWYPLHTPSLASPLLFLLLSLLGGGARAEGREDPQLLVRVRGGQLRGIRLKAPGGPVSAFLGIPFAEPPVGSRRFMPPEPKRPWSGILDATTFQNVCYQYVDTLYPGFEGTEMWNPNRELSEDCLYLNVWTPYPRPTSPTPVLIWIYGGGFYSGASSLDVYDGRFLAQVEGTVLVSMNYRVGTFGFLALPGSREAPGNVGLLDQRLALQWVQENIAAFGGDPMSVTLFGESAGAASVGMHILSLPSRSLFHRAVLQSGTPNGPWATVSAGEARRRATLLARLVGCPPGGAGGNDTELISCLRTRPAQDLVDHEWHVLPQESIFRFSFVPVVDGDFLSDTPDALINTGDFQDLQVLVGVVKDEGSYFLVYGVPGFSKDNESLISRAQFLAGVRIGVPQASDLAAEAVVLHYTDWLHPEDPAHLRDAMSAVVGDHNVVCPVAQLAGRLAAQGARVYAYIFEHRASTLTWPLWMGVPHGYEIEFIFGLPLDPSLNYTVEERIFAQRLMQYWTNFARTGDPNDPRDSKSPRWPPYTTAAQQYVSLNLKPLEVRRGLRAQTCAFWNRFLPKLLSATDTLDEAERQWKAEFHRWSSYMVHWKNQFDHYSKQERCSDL", "experiment": "Inhibition of rat brain AChE"}, "[8]": {"molecular_target": "Acetylcholinesterase (Homo sapiens, UniProt P22303)", "sequence (P22303 whole entry)": "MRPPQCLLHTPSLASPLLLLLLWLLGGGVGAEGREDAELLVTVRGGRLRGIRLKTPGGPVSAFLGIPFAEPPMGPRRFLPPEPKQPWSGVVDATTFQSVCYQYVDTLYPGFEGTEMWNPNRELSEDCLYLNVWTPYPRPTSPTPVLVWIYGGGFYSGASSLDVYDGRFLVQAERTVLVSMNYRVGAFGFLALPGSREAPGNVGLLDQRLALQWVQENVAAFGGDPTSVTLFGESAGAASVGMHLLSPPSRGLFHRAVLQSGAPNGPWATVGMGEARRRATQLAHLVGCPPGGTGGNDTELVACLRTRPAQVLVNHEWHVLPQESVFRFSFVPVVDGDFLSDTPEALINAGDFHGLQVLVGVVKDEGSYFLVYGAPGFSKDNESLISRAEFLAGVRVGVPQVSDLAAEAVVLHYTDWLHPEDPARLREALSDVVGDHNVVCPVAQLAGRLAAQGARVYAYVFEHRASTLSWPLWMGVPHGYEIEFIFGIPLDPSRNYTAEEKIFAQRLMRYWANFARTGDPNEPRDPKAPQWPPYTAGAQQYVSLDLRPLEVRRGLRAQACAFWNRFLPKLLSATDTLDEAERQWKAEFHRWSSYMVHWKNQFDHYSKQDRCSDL", "experiment": "Inhibition of human serum AChE"}, "[9]": {"experiment": "Inhibition of urease (unknown origin)"}}, "data": [{"compound": "O=S(=O)(c1ccccc1)N1CCN(c2noc3ccccc23)CC1", "values": [{"measurement": "MIC", "setting": "[1]", "value": 3.25, "unit": "µg/mL"}]}, {"compound": "Cc1ccc(S(=O)(=O)N2CCN(c3noc4cccc(Cl)c34)CC2)cc1", "values": [{"measurement": "MIC", "setting": "[1]", "value": 6.25, "unit": "µg/mL"}]}, {"compound": "O=C1c2ccc(OCCCN3CCC(c4noc5cc(F)ccc45)CC3)cc2OCC1CO", "note": "(centres undefined)", "values": [{"measurement": "IC50", "setting": "[2]", "value": 6.2, "unit": "nM"}, {"measurement": "IC50", "setting": "[3]", "value": 17, "unit": "nM"}]}, {"compound": "O=C(c1ccccc1)N(C(=O)c1ccccc1)c1onc2ccccc12", "values": [{"measurement": "MIC", "setting": "[4]", "value": 584, "unit": "µM"}]}, {"compound": "O=C(c1c(F)cccc1F)N1CCC(c2noc3cc(F)ccc23)CC1", "values": [{"measurement": "growth inhibition (GI)", "setting": "[5]", "value": 42.06, "unit": "%"}]}, {"compound": "Fc1ccc2c(C3CCN(CCN4CCCC4)CC3)noc2c1", "values": [{"measurement": "IC50", "setting": "[6]", "value": 2510, "unit": "nM"}, {"measurement": "IC50", "setting": "[7]", "value": 5300, "unit": "nM"}, {"measurement": "IC50", "setting": "[8]", "value": 3290, "unit": "nM"}]}, {"compound": "O=C(N1CCCC1)N1CCC(c2noc3cc(F)ccc23)CC1", "values": [{"measurement": "growth inhibition (GI)", "setting": "[5]", "value": 39.19, "unit": "%"}]}, {"compound": "CCCN1C(=O)C(C)c2cc(C(=O)CN3CCN(c4noc5cc(Cl)ccc45)CC3)ccc21", "note": "(centres undefined)", "values": [{"measurement": "MIC", "setting": "[1]", "value": 3.12, "unit": "µg/mL"}]}, {"compound": "COc1ccc(NC(=S)NC(Cc2ccccc2)C(=O)N2CCCC2C(=O)N2CCC(c3noc4cc(F)ccc34)CC2)cc1", "note": "(centres undefined)", "values": [{"measurement": "IC50", "setting": "[9]", "value": 4900, "unit": "nM"}]}, {"compound": "O=C(c1ccccc1)c1onc2ccccc12", "values": [{"measurement": "MIC", "setting": "[4]", "value": 44.8, "unit": "µM"}]}, {"compound": "Fc1ccc2c(C3CCN(CCN4CCCCC4)CC3)noc2c1", "values": [{"measurement": "IC50", "setting": "[6]", "value": 1500, "unit": "nM"}, {"measurement": "IC50", "setting": "[7]", "value": 1290, "unit": "nM"}, {"measurement": "IC50", "setting": "[8]", "value": 2220, "unit": "nM"}]}, {"compound": "CCCN1C(=O)Cc2cc(C(=O)CN3CCN(c4noc5ccccc45)CC3)ccc21", "values": [{"measurement": "MIC", "setting": "[1]", "value": 3.12, "unit": "µg/mL"}]}, {"compound": "O=C(Nc1ccccc1)c1onc2ccccc12", "values": [{"measurement": "MIC", "setting": "[4]", "value": 840, "unit": "µM"}]}, {"compound": "O=C(N1CCOCC1)N1CCC(c2noc3cc(F)ccc23)CC1", "values": [{"measurement": "growth inhibition (GI)", "setting": "[5]", "value": 37.75, "unit": "%"}]}]}
